Test results as given in US12011455B2, “Enhancing plasmin activity to prevent soft tissue calcification” (Vanderbilt University, priority 2016, dated 2024).

Tested on: CTX-injured skeletal muscle of mice
Experiment: Cardiotoxin-induced muscle injury model, radiographic/μCT soft tissue calcification and HO
Format: in vivo, mouse
Conditions: Plg+/− mice, 7 DPI, vs control
Protocol: Cardiotoxin-Induced Muscle Injury Model: Skeletal muscle injury was induced by an intramuscular injection of 40 μL of 10 nM Cardiotoxin (CTX, Accurate Chemical and Scientific Corp; Westbury, NY) in the posterior compartments of the lower extremities of male C57/B6 mice. Briefly, following anesthetization with Isoflurane, CTX was injected into the lateral aspect of the posterior compartment using a 28.5 G, 0.5 cc insulin syringe. The CTX induces massive local myocyte depolarization, leading to myocyte death. However, muscle resident stem cells are unaffected by the CTX, thereby allowing for muscle regeneration following injury. […]
Radiographic Analysis and Quantification of HO: Quantification was performed as described. […] These images underwent post-image standardization and were quantified with the previously validated heterotopic ossification scoring scale. […] A blinded reviewer assessed all scores (a score of 1=0-24%, a score of 2=25%-49%, a score of 3=50%-74%, and a score of 4=>75% of the lower extremity containing radiographically evident HO).
Ex vivo μCT Imaging and Quantification of HO: μCT mages were acquired (μCT40, Scanco Medical AG, Bassersdorf, Switzerland) following specimen harvest of injured hindlimbs at 55 kVp, 145 uA, 200 ms integration, 500 projections per 180° rotation, with a 20 μm isotropic voxel size. […] Mineral volume was then calculated using the Scanco evaluation software.

Fbg^ASO: Fibrinogen antisense oligonucleotide GCTTTGATCAGTTCTTTGGC; phosphorothioate backbone, 2′ O methoxyethyl wings (all phosphorothioate, sugars by position and methylation of C not given here; 2'-O-methoxyethyl wings)
soft tissue calcification after CTX injury (μCT/radiographs): failed to prevent soft tissue calcification
soft tissue calcification after CTX injury (μCT/radiographs) (listed as fibrinogen^ASO): marked soft tissue calcification formation
